From patent publication US20220280511A1, “CDK4/6 INHIBITORS FOR THE TREATMENT OF PSORIASIS” (EBERHARD KARLS UNIVERSITAET TUEBINGEN MEDIZINISCHE FAKULTAET, priority 2019, published 2022)

Columns and labels:
[1] = tested on: IMQ-induced, psoriasis-like skin inflammation; format: in vivo, C57BL/6 mice; conditions: for penetration of the skin: mouse, in vivo
Experimental: Western blot analysis was performed as described before. The following antibodies were used and purchased from Cell Signaling: anti-IκBζ (9244), anti-phospho-STAT3 at Tyr705 (9145), anti-phospho-STAT3 at Ser727 (9134), anti-STAT3 (12640), anti-p65 (8242), anti-EZH2 (5246), anti-pRB (phospho-RB at Ser807/811; 8516), anti-FoxM1 (5436), anti-H3 (4499), anti-CDK4 (12790), anti-CDK6 (13331), anti-CDK9 (2316), anti-cyclin D1 (2978), anti-cyclin D2 (3741), anti-cyclin D3 (2936), anti-cJUN (9165), anti-H3K27me3 (9733), anti-GAPDH (2118), anti-H3 (9715) and anti-β-actin (3700). Anti-β-Gal (sc377257) and anti-GFP (sc9996) were obtained from Santa Cruz Biotechnology. Anti-pEZH2 at T345 (61242) anti-pEZH2 at T487 (12820) were purchased from Active Motif and anti-pan-methyl-lysine antibody was purchased from Enzo (ADI-KAP-TF121-E). For detection of mouse IκB, a self-made antibody raised against peptides […] (SEQ ID NO:3) and […] (SEQ ID NO:4) was applied.
Gene expression analyses were performed as described. Relative gene expression was analyzed using self-designed primers ordered at Metabion (not shown). Relative mRNA levels were calculated by normalization to the human reference gene RPL37A or the mouse reference gene Actin using the 2-ΔΔCt method.
Experiments were conducted in accordance with the German law guide-lines of animal care. Ears of female C57BL/6 mice (8-12 weeks old) were topically treated for 6 consecutive days with 5 mg Aldara cream (containing 5% imiquimod, 3M Pharmaceutical) and 0.02 mg of abemaciclib (in 10 μL ethanol), 0.05 mg CPI-169 (in 10 μL ethanol) or vehicle control. At day 7, mice were sacrificed and analysed. For IL-36α-mediated psoriasis induction, ears of male C57BL/6 mice (8-12 weeks old) were treated by intradermal injections using 1 μg murine IL-36α (aa 8-160, R&D) or PBS control for 5 consecutive days. For application of the vehicle control, abemaciclib (0.02 mg) or CPI-169 (0.05 mg), substances were mixed with Miglyol 812 (Carl Roth) in a ratio of 1:4. Inhibitors were topically applicated 6 h before intradermal injections of IL-36α or PBS were applied. Mice were sacrificed and analysed at day 6.
Sample preparation was performed as described. The following anti-mouse antibodies from BioLegend were used: anti-CD45 FITC (103107), anti-CD11b PacificBlue (101223), anti-Ly6G PE (127607), anti-F4/80 APC (123115), anti-CD11c Pacific Blue (117322), anti-MHC-II APC (107613), anti-CD172a PE (144011) and anti-Silec-H PE (129605). Anti-PDCA-1 APC (17-2092-80) and anti-αβTCR PE (HM3628) were purchased from Invitrogen, and anti-γδ-TCR APC (17-5711-82) from Sigma. Data was acquired on a LSRII flow cytometer (Becton Dickson).
Ear sections from mice were fixed in 10% formalin (Carl Roth) and subsequently embedded in paraffin. 5-μm sections were prepared and incubated with the following antibodies from Cell Signaling: pSTAT3 (9145), pRB (8516) and H3K27me3 (9733). For staining of human skin samples, EZH2 antibody (Cell Signaling, 5246) was used. Antigen retrieval was performed in 1 mM EDTA pH 8.0 for pSTAT3, and 10 mM citrate buffer pH 6.0+0.5% Triton X-100 for EZH2, H3K27me3 and pRB. After incubation with peroxidase-coupled secondary antibodies, sections were stained with DAB substrate.

[2] = tested on: IL-36-triggered psoriasis-like dermatitis; test: IL-36α-mediated psoriasis-like dermatitis mouse model, topical treatment of ears; format: in vivo, C57BL/6 mice
Experimental: Western blot analysis was performed as described before. The following antibodies were used and purchased from Cell Signaling: anti-IκBζ (9244), anti-phospho-STAT3 at […] (9145), anti-phospho-STAT3 at […] (9134), anti-STAT3 (12640), anti-p65 (8242), anti-EZH2 (5246), anti-pRB (phospho-RB at […]/811; 8516), anti-FoxM1 (5436), anti-H3 (4499), anti-CDK4 (12790), anti-CDK6 (13331), anti-CDK9 (2316), anti-cyclin D1 (2978), anti-cyclin D2 (3741), anti-cyclin D3 (2936), anti-cJUN (9165), anti-H3K27me3 (9733), anti-GAPDH (2118), anti-H3 (9715) and anti-β-actin (3700). Anti-β-Gal (sc377257) and anti-GFP (sc9996) were obtained from Santa Cruz Biotechnology. Anti-pEZH2 at […] (61242) anti-pEZH2 at […] (12820) were purchased from Active Motif and anti-pan-methyl-lysine antibody was purchased from Enzo ([…]). For detection of mouse IκB, a self-made antibody raised against peptides […] NO:3) and […] NO:4) was applied. Gene expression analyses were performed as described. Relative gene expression was analyzed using self-designed primers ordered at Metabion (not shown). Relative mRNA levels were calculated by normalization to the human reference gene RPL37A or the mouse reference gene Actin using the 2-ΔΔCt method. Experiments were conducted in accordance with the German law guide-lines of animal care. Ears of female C57BL/6 mice (8-12 weeks old) were topically treated for 6 consecutive days with 5 mg Aldara cream (containing 5% imiquimod, 3M Pharmaceutical) and 0.02 mg of abemaciclib (in 10 μL ethanol), 0.05 mg CPI-169 (in 10 μL ethanol) or vehicle control. At day 7, mice were sacrificed and analysed. For IL-36α-mediated psoriasis induction, ears of male C57BL/6 mice (8-12 weeks old) were treated by intradermal injections using 1 μg murine IL-36α (aa 8-160, R&D) or PBS control for 5 consecutive days. For application of the vehicle control, abemaciclib (0.02 mg) or CPI-169 (0.05 mg), substances were mixed with Miglyol 812 (Carl Roth) in a ratio of 1:4. Inhibitors were topically applicated 6 h before intradermal injections of IL-36α or PBS were applied. Mice were sacrificed and analysed at day 6. […]

[3] = tested on: TH1 cytokines and tumor-infiltrating T cells; conditions: experimental cancer model, Deng et al.; cited from earlier work
[4] = flow cytometry of IMQ-treated mouse ears, day 7

| Compound | IκBζ expression in the skin, phosphorylation of EZH2 at T345 and of STAT3 at Y705 ([1]; IMQ-treated mouse skin, day 7) | expression of IκBζ target genes (Cxcl2, Cxcl5) and DC- and T-cell-derived cytokines (Il17a, Il23a) ([1]; IMQ-treated skin, day 7) | H3K27me3 expression in the epidermis (EZH2 inhibition) ([1]; ear skin sections of treated mice, FIG. 10c) | immune cell infiltration (neutrophils, macrophages and T cells) [1, 4] | number of infiltrating plasmacytoid (pDC) and myeloid dendritic cells (mDC) [1, 4] | penetration of the skin [1] | IMQ-induced, psoriasis-like skin inflammation (ear thickening, keratinocyte hyperproliferation, immune cell infiltration) ([1]; topical, daily 6 days, abemaciclib 0.02 mg, CPI-169 0.05 mg per ear) | IκBζ target gene expression and key cytokine expression (Il17a, Il23a) ([2]; IL-36α-treated skin, FIG. 12g) | keratinocyte hyperproliferation and immune cell infiltration ([2]; intradermal IL-36α 5 days, topical inhibitor, day 6) | IL-36-mediated expression of IκBζ, phosphorylation of EZH2 at T345 and activation of STAT3 (pSTAT3 Y705) ([2]; skin of treated mouse ears, day 6) | levels of TH1 cytokines and tumor-infiltrating T cells [3] |
| --- | --- | --- | --- | --- | --- | --- | --- | --- | --- | --- | --- |
| CCS(=O)(=O)N1CCC([C@@H](C)n2c(C)c(C(=O)NCc3c(OC)cc(C)[nH]c3=O)c3ccccc32)CC1 [CPI-169] | completely abrogated | significantly downregulated | loss | fully abrogated | significantly suppressed | effectively penetrated the skin | completely suppressed | effectively blocked | effectively blocked | suppressed |  |
| CCN1CCN(Cc2ccc(Nc3ncc(F)c(-c4cc(F)c5nc(C)n(C(C)C)c5c4)n3)nc2)CC1 [abemaciclib] |  |  |  |  |  | effectively penetrated the skin |  |  |  |  |  |
| CN1CCN(c2ccc(Nc3ncc4cc5n(c4n3)C3(CCCCC3)CNC5=O)nc2)CC1 [trilaciclib] |  |  |  |  |  |  |  |  |  |  | increased |
